The results in this text go back to ChEMBL document CHEMBL4837257, “Discovery of the Oxadiazine FRM-024: A Potent CNS-Penetrant Gamma Secretase Modulator” (J Med Chem, 2021).

For this test, the target named is T1, Cytochrome P450 2C8 (Homo sapiens, UniProt P10632).
T1 sequence (P10632 whole entry): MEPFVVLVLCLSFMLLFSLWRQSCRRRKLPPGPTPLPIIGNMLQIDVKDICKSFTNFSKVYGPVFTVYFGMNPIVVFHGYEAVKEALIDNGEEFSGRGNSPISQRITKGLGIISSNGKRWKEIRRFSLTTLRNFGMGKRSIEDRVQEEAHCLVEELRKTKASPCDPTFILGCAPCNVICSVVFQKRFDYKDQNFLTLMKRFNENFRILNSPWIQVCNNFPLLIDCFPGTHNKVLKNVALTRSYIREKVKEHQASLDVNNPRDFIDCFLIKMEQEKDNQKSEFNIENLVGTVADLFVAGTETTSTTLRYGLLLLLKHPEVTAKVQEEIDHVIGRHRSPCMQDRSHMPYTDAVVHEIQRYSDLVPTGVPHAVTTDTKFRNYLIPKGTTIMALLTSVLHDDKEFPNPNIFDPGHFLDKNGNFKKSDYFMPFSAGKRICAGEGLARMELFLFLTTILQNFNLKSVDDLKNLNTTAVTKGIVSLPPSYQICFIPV
Briefly: Inhibition of CYP2C8 (unknown origin). It is filed as ADME.

Broadly, the IC50 is the concentration at which inhibition is half-maximal. Low readings indicate inhibition by little substance, high ones a need for much substance. In turn, `COc1nc(C2=NOC(C3CC3)C(c3ccc(Cl)cc3)N2)ccc1-n1cnc(C)c1` (stereo unspecified) came in with an IC50 of 2600 nM.
